Assays:
RXRα [1] = molecular target: T1, RXRα (Homo sapiens, UniProt P19793); assay: ligand binding assay, RXRα; conditions: for Ki: read-out: RXR Bind Ki α; for Kd: Table 9 (Formula F), read-out: RXR α Kd
T1 construct: expressed in transfected cells
T1 sequence (P19793 1-462): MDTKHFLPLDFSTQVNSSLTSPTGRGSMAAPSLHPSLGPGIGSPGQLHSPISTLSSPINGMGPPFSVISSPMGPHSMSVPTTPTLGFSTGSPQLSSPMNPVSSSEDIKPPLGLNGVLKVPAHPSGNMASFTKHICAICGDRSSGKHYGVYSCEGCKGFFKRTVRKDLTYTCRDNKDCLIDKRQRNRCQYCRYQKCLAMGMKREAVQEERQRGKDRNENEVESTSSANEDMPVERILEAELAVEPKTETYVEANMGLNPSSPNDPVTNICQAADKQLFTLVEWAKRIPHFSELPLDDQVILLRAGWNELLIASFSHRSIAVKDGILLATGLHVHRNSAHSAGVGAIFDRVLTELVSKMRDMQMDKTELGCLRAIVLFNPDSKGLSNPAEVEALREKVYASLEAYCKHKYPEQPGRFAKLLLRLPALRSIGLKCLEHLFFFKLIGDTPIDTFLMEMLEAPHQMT
Outline: (§1)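 Binding of compounds to several retinoid receptor subtypes was measured. Results are given as Ki values in nanomolar concentration, derived per Cheng et al.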

RARα = molecular target: T2, RARα (Homo sapiens, UniProt P10276); assay: ligand binding assay, RARα; conditions: for Ki: read-out: RAR Bind. Ki α; for Kd: Table 9 (Formula F), read-out: RAR α Kd
T2 sequence (P10276 1-462): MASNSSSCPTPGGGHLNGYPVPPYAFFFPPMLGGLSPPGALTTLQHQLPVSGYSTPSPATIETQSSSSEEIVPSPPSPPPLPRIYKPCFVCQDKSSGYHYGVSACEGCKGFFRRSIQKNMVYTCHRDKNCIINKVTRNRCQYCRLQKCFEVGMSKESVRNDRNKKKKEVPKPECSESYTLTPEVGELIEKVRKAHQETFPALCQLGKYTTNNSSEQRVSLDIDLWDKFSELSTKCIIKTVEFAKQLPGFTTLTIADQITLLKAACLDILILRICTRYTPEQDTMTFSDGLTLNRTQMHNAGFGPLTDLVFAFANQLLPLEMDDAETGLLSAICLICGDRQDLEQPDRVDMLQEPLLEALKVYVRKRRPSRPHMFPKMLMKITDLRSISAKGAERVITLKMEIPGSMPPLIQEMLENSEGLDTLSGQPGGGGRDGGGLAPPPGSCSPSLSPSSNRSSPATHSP
Outline: as §1

RXRα [2] = molecular target: T1, RXRα; assay: holoreceptor transactivation assay, RXRα; type: cell-based; conditions: for EC50: holoreceptor transactivation, read-out: RXR Trans. EC50 α; for Emax: percentage compared to the standard compound, read-out: RXR Trans. efficacy (number in parentheses) α
Outline: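 Readout: EC50, nM, from receptor transactivation; efficacy = % of maximum vs standard cyclopropyl penta-2,4-dienoic acid retinoid. RXR data from holoreceptor format; RAR data from chimeric receptor format.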

RXRβ = molecular target: T3, RXRβ (UniProt P28704); assay: ligand binding assay, RXRβ; conditions: for Ki: read-out: RXR Bind Ki β; for Kd: Table 9 (Formula F), read-out: RXR β Kd
T3 sequence (P28704 1-520): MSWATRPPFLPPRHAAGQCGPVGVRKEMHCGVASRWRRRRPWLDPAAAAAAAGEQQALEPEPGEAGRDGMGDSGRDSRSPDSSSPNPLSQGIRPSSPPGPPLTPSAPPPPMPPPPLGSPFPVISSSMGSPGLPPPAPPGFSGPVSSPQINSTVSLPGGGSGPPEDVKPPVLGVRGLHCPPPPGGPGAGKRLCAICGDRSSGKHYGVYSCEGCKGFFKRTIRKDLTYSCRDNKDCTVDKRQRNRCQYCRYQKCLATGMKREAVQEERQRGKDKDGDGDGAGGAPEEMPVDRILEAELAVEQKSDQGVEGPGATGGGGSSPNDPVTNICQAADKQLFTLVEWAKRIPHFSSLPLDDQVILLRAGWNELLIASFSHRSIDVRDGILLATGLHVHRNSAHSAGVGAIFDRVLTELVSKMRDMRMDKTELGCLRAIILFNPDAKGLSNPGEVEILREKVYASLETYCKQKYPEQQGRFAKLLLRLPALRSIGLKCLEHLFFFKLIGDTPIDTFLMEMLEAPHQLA
Outline: as §1

SMILES	Ki (RXRα [1]) [nM]	Ki (RARα) [nM]	EC50 (RXRα [2]) [nM]	Emax (RXRα [2]) [%]	Ki (RXRβ) [nM]	Kd (RXRα [1]) [nM]	Kd (RARα) [nM]	Kd (RXRβ) [nM]
CC/C(=C(F)/C=C/C(C)=C/C(=O)O)c1cc2c(cc1OC)OC(C)(C)C=C2C(C)(C)C [Compound 131, 7-(4-tert-Butyl-7-methoxy-2,2-dimethyl-2H-chromen-6-yl)-6-fluoro-3-methyl-nona-2E,4E,6E-trienoic acid]	10	837	6	37	94			
CCOc1c(\C(=C/C=C/C(C)=C/C(=O)O)CC)cc2c(c1Cl)OC(C)(C)C=C2C(C)C [Compound 51]	13	422	9	25	112			
CCOc1cc2c(cc1\C(C)=C(F)/C=C/C(C)=C/C(=O)O)C(CC)=CC(C)(C)O2 [Compound 123, 7-(7-Ethoxy-4-ethyl-2,2-dimethyl-2H-chromen-6-yl)-6-fluoro-3-methyl-octa-2E,4E,6E-trienoic acid]	833	> 10000	> 10000		> 10000			
COc1c(\C(C)=C/C=C/C(C)=C/C(=O)O)cc2c(c1Cl)OC(C)(C)C=C2C(C)C [Compound 49, 7-(8-Chloro-4-isopropyl-7-methoxy-2,2-dimethyl-2H-chromen-6-y)-3-methyl-octa-2E,4E,6Z-trienoic acid]	2	1000	0.1	93	20			
CC/C(=C(F)/C=C/C(C)=C/C(=O)O)c1cc2c(cc1OC)OC(C)(C)C=C2C(C)C [Compound 130, 6-Fluoro-7-(4-isopropyl-7-methoxy-2,2-dimethyl-2H-chromen-6-yl)-3-methyl-nona-2E,4E,6E-trienoic acid]	3	133	0.5	80	24			
CCOc1c(\C(C)=C/C=C/C(C)=C/C(=O)O)cc2c(c1Cl)OC(C)(C)C=C2C(C)C [Compound 50, 7-(8-Chloro-4-isopropyl-7-ethoxy-2,2-dimethyl-2H-chromen-6-yl)-3-methyl-octa-2E,4E,6Z-trienoic acid]	4	738	2	56	76			
CC(/C=C/C(F)=C(/C)c1cc2c(c(Cl)c1OC(C)C)OC(C)(C)C=C2C(C)C)=C\C(=O)O [Compound 174]	29	532	59	8	319			

Continued, values first:

Ki (RXRα [1]) [nM]	Ki (RARα) [nM]	EC50 (RXRα [2]) [nM]	Emax (RXRα [2]) [%]	Ki (RXRβ) [nM]	Kd (RXRα [1]) [nM]	Kd (RARα) [nM]	Kd (RXRβ) [nM]	SMILES
2	387	1	43	14				CCOc1cc2c(cc1\C(C)=C(F)/C=C/C(C)=C/C(=O)O)C(C(C)(C)C)=CCC2(C)C [Compound A-82, (2E,4E,6E)-6-Fluoro-3-(4,4-dimethyl-6-ethoxy-1-tert-butyl-3,4 dihydronaphthalen-7-yl)-3-methyl-2,4,6-octa-trienoic acid]
		19	31		8	141	41	CC(/C=C/C(F)=C(/C)c1cc2c(c(Br)c1OC(C)C)C(C)(C)CC=C2C(C)C)=C\C(=O)O [Compound A-172, (2E,4E,6E)-7-(4-Bromo-3-isopropoxy-8-isopropyl-5,5-dimethyl-5,6-dihydro-naphthalen-2-yl)-6-fluoro-3-methyl-octa-2,4,6-trienoic acid]
		0.9	24		2	29	15	CCOc1c(\C(=C(F)/C=C/C(C)=C/C(=O)O)C(C)C)cc2c(c1Br)C(C)(C)CC=C2C(C)C [Compound A-171, (2E,4E,6E)-7-(4-Bromo-3-ethoxy-8-isopropyl-5,5-dimethyl-5,6-dihydro-naphthalen-2-yl)-6-fluoro-3.8-dimethyl-nona-2.4,6-trienoic acid]
		1	24		2	997	12	CCOc1c(\C(C)=C(F)/C=C/C(C)=C/C(=O)O)cc2c(c1Br)C(C)(C)CC=C2C(C)(C)C [Compound A-174, (2E,4E,6E)-7-(4-Bromo-8-tert-butyl-3-ethoxy-5,5-dimethyl-5,6-dihydro-naphthalen-2-yl)-6-fluoro-3-methyl-octa-2,4,6-trienoic acid]
8.7	578	12	39	49				CCOc1cc2c(cc1\C(=C/C=C/C(C)=C/C(=O)O)CC)C(C)=CCC2(C)C [Compound A-16, 7-(3-Ethoxy-5,5,8-trimethyl-5,6-dihydronaphthalen-2-yl)-3-methyl-nona-2E,4E,6Z-trienoic acid]
2.4	861	0.6	85	16				CCOc1cc2c(cc1\C(C)=C/C=C/C(C)=C/C(=O)O)C(C(C)(C)C)=CCC2(C)C [Compound A-17, 7-(8-tert-Butyl-3-ethyloxy-5,5-dimethyl-5,6-dihydronaphthalen-2-yl)-3-methyl-octa-2E,4E,6Z-trienoic acid]
35	1600	50	104	347				CCOc1cc2c(cc1\C(C)=C(F)/C=C/C(C)=C/C(=O)O)C=CCC2(C)C [Compound A-76, (2E,4E,6E)-7-(3-Ethoxy-5,5-dimethyl-5,6-dihydro-naphthalen-2-yl)-6-fluoro-3-methyl-octa-2,4.6-trienoic acid]

— US6887896B1, “7-[(7-Alkoxy)-chrom-3-en-6-yl]-heptatrienoic acid and 7-[(3-alkoxy)-5,6-dihydronaphthalen-2-yl]-heptatrienoic acid derivatives having serum glucose reducing activity” (Allergan, Inc., priority 2003, dated 2005)
